Legend:
HuM2e antibody 23K12 = assay type: binding, human
[1] = tested on: anti-M2 human monoclonal antibody Z3G1; assay type: binding

| Substance | Signal (peptides that bind to 23K21 and 8I10) (HuM2e antibody 23K12) | Signal (peptides that bind to Z3G1) [1] | Signal (peptides that show specific binding to Z3G1) [1] |
| --- | --- | --- | --- |
| 373 (CSLLTECGMSLLTEV; epitope peptide) [compound 373] | 1458 | 1235 | – |
| 454 (SLLTEVETPIMNEWGCRCNDSSD; epitope peptide) [compound 454] | 1308 | – | 2369 |
| 552 (SLLTEVETPIRNEWGCYCNDSSD; epitope peptide) [compound 552] | 913 | – | 2397 |
| 320 (SLLTEVGSLLTEV; epitope peptide) [compound 320] | 1794 | – | 2530 |
| 326 (SLLTEVETPIRNEWGCRCNDSSD; epitope peptide) [compound 326] | 1749 | – | 2476 |
| 509 (SLLTEVETPIYNEWGCRCNDSSD; epitope peptide) [compound 509] | 1049 | – | 2296 |
| 699 (SLLTEVETPIRNEWGCRYNDSSD; epitope peptide) [compound 699] | 716 | 2169 | – |
| 434 (SLLTEVETPIRNEWGCRCNDSYD; epitope peptide) [compound 434] | 862 | 2479 | – |
| 551 (SLLTEVATPIRNEWGCRCNDSSD; epitope peptide) [compound 551] | 914 | – | 2093 |
| 617 (SLLTEVETPIRNSWGCRCNDSSD; epitope peptide) [compound 617] | 807 | – | 2300 |
| 606 (SLLTEVETQIRNEWGCRCNDSSD; epitope peptide) [compound 606] | 819 | – | 2189 |
| 557 (MSCLTEVGCSLLTEV; epitope peptide) [compound 557] | 899 | 2506 | – |
| 549 (SLLTEVETFIRNEWGCRCNDSSD; epitope peptide) [compound 549] | 916 | – | 2301 |
| 357 (SLLTEVETPIPNEWGCRCNDSSD; epitope peptide) [compound 357] | 1548 | – | 2515 |
| 476 (CSLLTEVGCSCLCEV; epitope peptide) [compound 476] | 1206 | 1680 | – |
| 527 (SLLTEVEQPIRNEWGCRCNDSSD; epitope peptide) [compound 527] | 986 | – | 2344 |
| 555 (SLLTEVETPIRNEWGCRCWDSSD; epitope peptide) [compound 555] | 901 | 2462 | – |
| 461 (SLLTEVETPLRNEWGCRCNDSSD; epitope peptide) [compound 461] | 1268 | – | 2239 |
| 380 (SLLTEVETPIRNTWGCRCNDSSD; epitope peptide) [compound 380] | 1409 | – | 2314 |
| 668 (SLLTEVETPIRNEWGYRCNDSSD; epitope peptide) [compound 668] | 739 | – | 2410 |
| 596 (SLLTEVETPIRNEWFCRCNDSSD; epitope peptide) [compound 596] | 837 | – | 2493 |
| 533 (CSLLTEVGSCLCEC; epitope peptide) [compound 533] | 963 | – | 2625 |
| 615 (SLLTEVETPIRNEWGCDCNDSSD; epitope peptide) [compound 615] | 810 | – | 2207 |
| 307 (SLCTEVGCLCTCV; epitope peptide) [compound 307] | 1907 | – | – |

| Substance | Signal (peptides that bind to 23K21 and 8I10) (HuM2e antibody 23K12) | Signal (peptides that bind to Z3G1) [1] | Signal (peptides that show specific binding to Z3G1) [1] |
| --- | --- | --- | --- |
| 471 (SLLTEEETPIRNEWGCRCNDSSD; epitope peptide) [compound 471] | 1220 | – | – |
| 655 (SLYTEVETPIRNEWGCRCNDSSD; epitope peptide) [compound 655] | 753 | – | – |
| 558 (CSLLTECGMSCLCEC; epitope peptide) [compound 558] | 897 | – | – |
| 149 (CTEVETPIRNEWGSRSCLTEVETPIRNEWGSRC; epitope peptide) [compound 149] | 1348 | – | – |
| 561 (SCLTEVETPIRNEWGCRCNDSSD; epitope peptide) [compound 561] | 892 | – | – |
| 507 (SLCTEVETPIRNEWGCRCNDSSD; epitope peptide) [compound 507] | 1050 | – | – |
| 485 (CSLLTECGMCLCTCV; epitope peptide) [compound 485] | 1168 | – | – |
| 376 (CSLLTECGMSLLTEC; epitope peptide) [compound 376] | 1445 | – | – |
| 481 (CSLLTECGMSLCTEV; epitope peptide) [compound 481] | 1187 | – | – |
| 332 (SALTEVETPIRNEWGCRCNDSSD; epitope peptide) [compound 332] | 1689 | – | – |
| 298 (SLCTEVGSCLCEC; epitope peptide) [compound 298] | 1967 | – | – |
| 497 (SLLTECGSCLCEC; epitope peptide) [compound 497] | 1077 | – | – |
| 344 (SMLTEVETPIRNEWGCRCNDSSD; epitope peptide) [compound 344] | 1622 | – | – |
| 498 (SLLTEMETPIRNEWGCRCNDSSD; epitope peptide) [compound 498] | 1076 | – | – |
| 554 (CLLTEVGSLLTCV; epitope peptide) [compound 554] | 902 | – | – |
| 322 (SKLTEVETPIRNEWGCRCNDSSD; epitope peptide) [compound 322] | 1784 | – | – |
| 466 (SCLTEVGCSLLTEV; epitope peptide) [compound 466] | 1250 | – | – |
| 462 (SLLTECGCLLTEV; epitope peptide) [compound 462] | 1259 | – | – |
| 518 (SYLTEVETPIRNEWGCRCNDSSD; epitope peptide) [compound 518] | 1019 | – | – |
| 486 (SLFTEVETPIRNEWGCRCNDSSD; epitope peptide) [compound 486] | 1156 | – | – |
| 305 (CSCLCEVGMSLLTEC; epitope peptide) [compound 305] | 1925 | – | – |
| 515 (SLLTEWETPIRNEWGCRCNDSSD; epitope peptide) [compound 515] | 1025 | – | – |
| 604 (SLCTEVGSCLTEV; epitope peptide) [compound 604] | 824 | – | – |
| 362 (CSLLTECGMCLLTEV; epitope peptide) [compound 362] | 1517 | – | – |

| Substance | Signal (peptides that bind to 23K21 and 8I10) (HuM2e antibody 23K12) | Signal (peptides that bind to Z3G1) [1] | Signal (peptides that show specific binding to Z3G1) [1] |
| --- | --- | --- | --- |
| 567 (SLLTECGCSCLCEV; epitope peptide) [compound 567] | 879 | – | – |
| 502 (CSCLCEVGSLLTEC; epitope peptide) [compound 502] | 1064 | – | – |
| 479 (SLLTEDETPIRNEWGCRCNDSSD; epitope peptide) [compound 479] | 1196 | – | – |
| 531 (MSLCTEVGMSLLTEC; epitope peptide) [compound 531] | 970 | – | – |
| 550 (SLLTENETPIRNEWGCRCNDSSD; epitope peptide) [compound 550] | 914 | – | – |
| 539 (SLLTEYETPIRNEWGCRCNDSSD; epitope peptide) [compound 539] | 950 | – | – |
| 523 (SLLTEFETPIRNEWGCRCNDSSD; epitope peptide) [compound 523] | 1009 | – | – |
| 490 (SVLTEVETPIRNEWGCRCNDSSD; epitope peptide) [compound 490] | 1109 | – | – |
| 333 (SLLTCVGSLLTEC; epitope peptide) [compound 333] | 1683 | – | – |
| 335 (CSCLCEVGCSLLTEC; epitope peptide) [compound 335] | 1677 | – | – |
| 315 (MCLCTCVGCSLLTEC; epitope peptide) [compound 315] | 1823 | – | – |
| 483 (CSLLTECGCSLLTEC; epitope peptide) [compound 483] | 1177 | – | – |
| 521 (SLLTAVETPIRNEWGCRCNDSSD; epitope peptide) [compound 521] | 1012 | – | – |
| 374 (SLLTECGCSLLTEC; epitope peptide) [compound 374] | 1451 | – | – |
| 348 (SLLTECGCSLLTEV; epitope peptide) [compound 348] | 1597 | – | – |
| 514 (SLLTEGETPIRNEWGCRCNDSSD; epitope peptide) [compound 514] | 1029 | – | – |
| 310 (MSCLCECGMSLLTEC; epitope peptide) [compound 310] | 1887 | – | – |
| 331 (MSLLTECGMSLLTCV; epitope peptide) [compound 331] | 1690 | – | – |
| 340 (MSCLCECGCSLLTEC; epitope peptide) [compound 340] | 1652 | – | – |
| 391 (SNLTEVETPIRNEWGCRCNDSSD; epitope peptide) [compound 391] | 1345 | – | – |
| 282 (CSCLCEVGMSCLCEC; epitope peptide) [compound 282] | 2705 | – | – |
| 540 (SLLTEHETPIRNEWGCRCNDSSD; epitope peptide) [compound 540] | 942 | – | – |

From patent publication US8932597B2 (priority 2008, dated 2015)
